The values that follow come from the METLIN SMRT retention time set (Domingo-Almenara et al. 2019).

The nature of this data set: gradient 5% acetonitrile 3 min, to 50% in 2 min, to 85% in 15 min, held 3 min, 100 µL/min. The settings on record: column: Zorbax Extend-C18 2.1 x 50 mm; eluents: water / acetonitrile, 0.1% formic acid. In a few lines:
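Retention times of pure standards were taken from adduct peaks that were selected by computer and manually inspected. Over 3 months, mixtures of ~100 molecules were run by HPLC–quadrupole time-of-flight mass spectrometry in positive and negative ionization mode. The Zorbax Extend-C18 column (2.1 × 50 mm, 1.8 μm) ran at 100 μL/min in water and acetonitrile, each containing 0.1% formic acid, with 40 μL dead volume and 900 μL dwell volume.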
In the case of `Cc1nnc(N2CCCC(C(=O)NCCN3CCOCC3)C2)c2nn(-c3ccc(Cl)cc3)c(C)c12` (centres undefined), the RP-LC retention time was determined as 590 s. In the case of `Cc1cccc(NS(=O)(=O)c2cn(CC(C)C)c3ncccc23)c1C` it was 1070 s. `Cn1c(=O)oc2cc(-c3noc(-c4ccccc4Br)n3)ccc21`: the RP-LC retention time worked out at 1070 s. Molecule `CCN1C(=O)CCC2(C(=O)Nc3ccc(N4CCOCC4)cc3)CCCC=C12` (centres undefined) registered an RP-LC retention time of 663 s. Regarding `COc1cccc(NC(=O)N2CCCC2c2cc(C(C)C)no2)c1` (centres undefined), the RP-LC retention time is 855 s. Molecule `COc1ccccc1CCNC(=O)CCc1csc(NC(=O)NC2CCCCC2)n1` returned an RP-LC retention time of 786 s. Regarding `CC(C)CN1CCn2cc(S(=O)(=O)Nc3ccc(F)cc3Cl)cc2C1=O`, the RP-LC retention time turned out to be 838 s. `Cc1cc(F)ccc1NC(=O)Cn1c(=O)cc(-c2nc(C(C)C)no2)c2ccccc21`: the RP-LC retention time is 996 s. For the molecule `Cc1cccc2c(=O)n(C3CCN(S(=O)(=O)c4ccc(F)c(F)c4)CC3)cnc12`, the RP-LC retention time came out at 989 s. In the case of `O=C(c1ccco1)N1CCCn2nc(-c3cccc(Cl)c3)cc2C1`, the RP-LC retention time was found to be 861 s.

`Cc1cc(N2CCCCC2)nc(N2CCN(C(=O)c3ccc(C(C)(C)C)cc3)CC2)n1` showed an RP-LC retention time of 855 s. In the case of `Cc1ccc(-c2nc(-c3cccc(-c4ccnn4C)c3)no2)c(C)c1` it was 1330 s. In the case of `CCOc1ccccc1-c1noc(Cn2c(=O)n(-c3ccc(OC)cc3)c(=O)c3sccc32)n1` it was 962 s; in that of `Cc1ccc(Cl)cc1NC(=O)Cn1cnc2nc3c(cc2c1=O)CCCC3`, 783 s; in that of `CCCCC(C(=O)O)C(C)CC(=O)Nc1nc(-c2ccccc2)cs1` (centres undefined), 982 s.

Molecule `O=C(CCC1CCN(S(=O)(=O)c2ccccc2)CC1)NC1CCCCCC1` came in with an RP-LC retention time of 958 s. In the case of `Cc1nc(S(=O)(=O)N2CCC(C(=O)N3CCN(c4ccccc4)CC3)CC2)cn1C` it was 687 s; in that of `CCC1Oc2ccc(S(=O)(=O)N3CCC(C(=O)N4CCOCC4)CC3)cc2NC1=O` (centres undefined), 691 s. `CC1=C(c2ccc(Cl)cc2)S(=O)(=O)N=C1N1CCCN(C(=O)c2ccoc2)CC1` came in with an RP-LC retention time of 825 s. As for `CCc1ccc(NC(=O)Cn2c(=O)cc(-c3nc(C)no3)c3ccccc32)cc1`, the figure is 930 s; as for `CCOC(=O)N1CCN(C(=O)CCNc2c(-c3cccc(F)c3)nc3cnccn23)CC1`, 689 s; as for `CCCCC(=O)N1CCN(c2nc3ccccc3cc2-c2noc(C)n2)CC1`, 913 s. For the molecule `COc1ccc2c(ccn2CC(=O)N[C@@H](C)C(=O)O)c1`, the RP-LC retention time was 665 s. Consider `CCOc1ccc(CCNC(=O)c2nc(CCS(=O)(=O)c3ccc(F)cc3)no2)cc1OCC`, for which the RP-LC retention time was 952 s. In the case of `CCCNC(=O)N1CCN(c2nc(CC(C)C)c3c(c2C#N)CC(C)(C)OC3)CC1` it was 1090 s; in that of `CCOC(=O)c1c(C)c(CCC(=O)N2CCN(C(=O)c3ccco3)CC2)n(CC)c1C`, 778 s. In turn, `O=C(NCc1ccccn1)C(=O)c1cn(CC(=O)N2CCOCC2)c2ccccc12` had an RP-LC retention time of 614 s. In the case of `O=C(NCCC1CCN(C(=O)Nc2ccccc2)CC1)c1ccsc1` it was 749 s; in that of `Cc1ccc(C)c(N2CCN(Cc3nc(-c4ccc(N5CCCC5)nc4)no3)CC2)c1`, 784 s. In the case of `O=C(NCc1cccnc1-c1ccccc1)c1ccc(Br)cc1` it was 686 s; in that of `CCC(=O)N(C1CCOCC1)C1CCN(S(=O)(=O)c2ccc(C(F)(F)F)cc2)CC1`, 892 s; in that of `CCc1ccc(C(=O)N2CCN(C(=O)c3nnn4c3COC(c3ccc(C)cc3)C4)CC2)cc1` (centres undefined), 1000 s.

For the molecule `CCOC(=O)N1CCC(NC(=O)CCC2CCN(c3cc(NC4CC4)ncn3)CC2)CC1`, the RP-LC retention time worked out at 619 s. The molecule `CN(C)CCNc1nnc(-c2nc(-c3ccc(F)cc3)no2)c2ccccc12` came in with an RP-LC retention time of 687 s.

In turn, `COc1ccc(CNC(=O)C2CCCN(c3cnc4nccnc4c3)C2)cc1` (centres undefined) came in with an RP-LC retention time of 676 s. On to `Cc1ccsc1C(=O)Nc1cccc(OCc2nnc(-c3ccc(F)cc3)o2)c1`, for which the RP-LC retention time came to 981 s. `CN1C(=O)CCSc2ccccc21`: the RP-LC retention time came to 711 s. Regarding `Cc1cc(F)ccc1NS(=O)(=O)c1cc(-c2[nH]ncc2C(=O)N2CCCC2)oc1C`, the RP-LC retention time amounted to 728 s.

Turning to `Cc1ccc(NC(=O)COc2cccc3c(=O)n(C)ccc23)cc1`, the RP-LC retention time came to 795 s. As for `Cc1oc(-c2[nH]ncc2C(=O)N(C)C)cc1S(=O)(=O)Nc1ccc(F)c(Cl)c1`, the RP-LC retention time is 740 s.

`Cc1ccc(-c2csc(-n3nc(C)c(CC(=O)Nc4cc(Cl)ccc4C)c3C)n2)cc1` displayed an RP-LC retention time of 982 s. The molecule `COC(=O)c1c(C)[nH]c(C(=O)N2CCCC(C(=O)NCCCN3CCCCC3)C2)c1C` (centres undefined) yielded an RP-LC retention time of 596 s. In the case of `COCCCN(CC(=O)N1CCc2sccc2C1COc1ccccc1)C(=O)C(C)C` (centres undefined) it was 892 s.

`COc1ccccc1Nc1nc(-c2ccccc2)c(CC(=O)O)s1` registered an RP-LC retention time of 891 s.

With `CCOc1ccc(NC(=O)N(Cc2cccs2)C2CCN(CC)CC2)cc1`, the RP-LC retention time is 653 s. In turn, `O=C(Oc1cccc(Oc2ccccc2)c1)N1CCOCC1` had an RP-LC retention time of 889 s. In the case of `CCOc1ccc(-c2[nH]ncc2CN2CCC3(CC2)CC(C)(O)CCO3)cc1` (centres undefined) it was 596 s; in that of `Cc1nc(NCCC2=CCCCC2)nc(N2CCOCC2)c1[N+](=O)[O-]`, 965 s; in that of `COCCNC(=O)N1c2ccccc2NC2=C(C(=O)CC(C)(C)C2)C1c1ccc(OC)cc1` (centres undefined), 704 s. As for `CCCCS(=O)(=O)N1CCc2c(c(-c3nnc(SCC)n3CC)nn2C)C1`, the figure is 878 s. Molecule `O=S(=O)(c1ccccc1Cl)N1CC(c2nc(Cc3ccccc3)no2)C1` came in with an RP-LC retention time of 951 s. In turn, `Cn1cc(-c2ccccc2)c2c1c(=O)n(C)c1nn(Cc3nc(-c4ccccc4)no3)c(=O)n21` yielded an RP-LC retention time of 1040 s. For `Fc1ccc(C2Cn3nnc(-c4nc(-c5ccccc5Cl)no4)c3CO2)cc1` (centres undefined), the RP-LC retention time was 1170 s. `CN(C)S(=O)(=O)N1CCCC(c2nc(-c3cccnc3)no2)CCNC(=O)CC1` (centres undefined) yielded an RP-LC retention time of 641 s. With `COc1cc(OC)c(NC(=O)N2CCc3nc[nH]c3C2)cc1Cl`, the RP-LC retention time is 583 s. The molecule `COc1ccc(N2CCN(c3cc(SCC(=O)NC(C)CCc4ccccc4)ncn3)CC2)cc1` (centres undefined) returned an RP-LC retention time of 1310 s. In the case of `O=C(/C=C/c1ccc(O)c(O)c1)c1ccc(O[C@@H]2O[C@H](CO)[C@@H](O)[C@H](O)[C@H]2O)c(O)c1O` it was 641 s. In the case of `Cc1cc(C)cc(Oc2nccn3c(=O)n(CC(=O)Nc4c(C)cccc4C)nc23)c1` it was 906 s; in that of `Cn1nnnc1NCc1ccc(-c2cccc(Cl)c2)o1`, 826 s. For `N[C@H]1C[C@@H]1c1ccccc1`, the RP-LC retention time stood at 578 s.

Molecule `CCc1cccc(N2C(=O)CN(S(C)(=O)=O)CC2(C)C(=O)NCc2ccccc2)c1` (centres undefined) gave an RP-LC retention time of 804 s. Turning to `Cc1nc(-c2ccc(-c3noc(C(C)NC(=O)c4ccco4)n3)cc2)cs1` (centres undefined), the RP-LC retention time was determined as 863 s. In the case of `CCc1nnc(-c2cc(C)n(CC(=O)NC(C)c3ccccc3)c2C)o1` (centres undefined) it was 805 s; in that of `COc1ccc2c(c1)C1(CCN(C(=O)NC(C)(C)C)C1)C(=O)N2C` (centres undefined), 753 s. The molecule `Cc1cc(NC(=O)c2csc(-c3ccc(N4CCCC4)nc3)n2)ccc1F` showed an RP-LC retention time of 795 s. The molecule `Cc1nc(-c2noc(-c3ccccc3)n2)cn1CC(=O)N1CCN(c2ccccc2F)CC1` came in with an RP-LC retention time of 894 s. For `Cc1sc(-c2nnc(C3CC3)o2)cc1NC(=O)c1cccc(N(C)C)c1`, the RP-LC retention time was found to be 896 s.

In turn, `O=C(Nc1nc2c(s1)CN(S(=O)(=O)/C=C/c1ccccc1)CC2)c1cnccn1` yielded an RP-LC retention time of 780 s.

`O=C(Nc1nc(-c2ccccc2)cs1)c1ccncc1` registered an RP-LC retention time of 734 s. Consider `Cc1ccc(C2=NC3(CCN(C(=O)CSc4ccccc4)CC3)ON2)cc1`, for which the RP-LC retention time came to 894 s.

Molecule `COc1ccc(-c2nc3cc(F)ccc3s2)cc1OC` displayed an RP-LC retention time of 1030 s. For `CCC(CC)NC(=O)C1(CCO)CCN(Cc2ccccc2)C1` (centres undefined), the RP-LC retention time worked out at 618 s.

`O=C(NC1CCN(Cc2ccccc2)CC1)C1CCCN(S(=O)(=O)N2CCOCC2)C1` (centres undefined) gave an RP-LC retention time of 593 s.

With `O=C(Cn1cnc2c(nc3n2CCCCC3)c1=O)Nc1ccc2c(c1)OCCO2`, the RP-LC retention time came out at 659 s. Turning to `CCOC(=O)c1[nH]c(C)c(CCC(=O)Nc2ccc3c(c2)OCCO3)c1C`, the RP-LC retention time was found to be 805 s. As for `CCCC(=O)Nc1ccc2c(c1)CN(C(=O)c1ccccc1Cl)C(C(=O)N(C)C)C2` (centres undefined), the figure is 707 s; as for `O=C(NCc1cccs1)c1ccc2c(c1)ncn2CCN1CCCC1`, 577 s; as for `COCCC(=O)N1CCC2(CCC2OC)CC1` (centres undefined), 664 s. In turn, `Cc1cc(C2CCCN2C(=O)Nc2ccc(C)c(C)c2)no1` (centres undefined) yielded an RP-LC retention time of 857 s.
